Several values for one entry are separate records, joined by “and”; a condition that tells them apart may be missing. Identical values can stand only once. Records with an inconclusive call do not appear.
Tested on: BDF1 mice, s.c. Lewis lung carcinoma, T/C %
Assay: NCI In Vivo Anticancer Drug Screen. Data for tumor model Lewis Lung Carcinoma (subcutaneous) in B6D2F1 (BDF1) mice
How it was run: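 Readout: survival or tumor size, expressed as treated (T) over vehicle control (C). Transplantable tumor implanted in mice; compound given to the treated group.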

CC(C)[C@]1(O)CC[C@H]2[C@@H]3CCc4cc(O)ccc4[C@H]3CC[C@@]21C
T/C (endpoint: mean tumor weight, dose: 2.5 mg/kg/injection, schedule: Q01DX011 (sc), vehicle: saline, higher = larger tumour): 87 % of control
T/C (endpoint: mean tumor weight, dose: 5.0 mg/kg/injection, schedule: Q01DX011 (sc), vehicle: saline, higher = larger tumour): 68 % of control
T/C (endpoint: mean tumor weight, dose: 10.0 mg/kg/injection, schedule: Q01DX011 (sc), vehicle: saline, higher = larger tumour): 80 % of control
T/C (endpoint: mean tumor weight, dose: 10.0 mg/kg/injection, schedule: Q01DX011 (sc), vehicle: steriod suspending solution, higher = larger tumour): 51 % of control
T/C (endpoint: mean tumor weight, dose: 20.0 mg/kg/injection, schedule: Q01DX011 (sc), vehicle: steriod suspending solution, higher = larger tumour): 65 % of control
T/C (endpoint: mean tumor weight, dose: 40.0 mg/kg/injection, schedule: Q01DX011 (sc), vehicle: steriod suspending solution, higher = larger tumour): 36 % of control
T/C (endpoint: mean tumor weight, dose: 80.0 mg/kg/injection, schedule: Q01DX011 (sc), vehicle: steriod suspending solution, higher = larger tumour): 55 % of control

CN(C)CCOC(=O)COc1ccc(Cl)cc1
T/C (endpoint: median survival time, dose: 200.0 mg/kg/injection, schedule: Q01DX005 (ip), vehicle: saline, higher = longer survival): 103 % of control and 116 % of control
T/C (endpoint: median survival time, dose: 300.0 mg/kg/injection, schedule: Q01DX005 (ip), vehicle: saline, higher = longer survival): 119 % of control

O=C(O)C(=O)c1ccc(-c2ccccc2)cc1
T/C (endpoint: mean tumor weight, dose: 35.0 mg/kg/injection, schedule: Q01DX011 (ip), vehicle: methylcellulose (MC), higher = larger tumour): 82 % of control
T/C (endpoint: mean tumor weight, dose: 50.0 mg/kg/injection, schedule: Q01DX011 (ip), vehicle: methylcellulose (MC), higher = larger tumour): 68 % of control
T/C (endpoint: mean tumor weight, dose: 75.0 mg/kg/injection, schedule: Q01DX011 (ip), vehicle: methylcellulose (MC), higher = larger tumour): 52 % of control
T/C (endpoint: mean tumor weight, dose: 110.0 mg/kg/injection, schedule: Q01DX011 (ip), vehicle: methylcellulose (MC), higher = larger tumour): 52 % of control

From PubChem BioAssay AID270 (DTP/NCI, 2004)
